Laboratory results as given in paper PMC9959048, “Lipidation of Naturally Occurring α-Helical Antimicrobial Peptides as a Promising Strategy for Drug Design” (International Journal of Molecular Sciences, 2023).
In brackets after ≈: the same amount, converted by molar mass. Residues, ends and D or L forms follow the SMILES beside them. *: point of attachment. Palmitoyl = CCCCCCCCCCCCCCCC(=O)*; Decanoyl = CCCCCCCCCC(=O)*; Octanoyl = CCCCCCCC(=O)*

Key:
S. aureus cells = assay: TEM of S. aureus cells treated with lipopeptide; assay type: cell-based, Staphylococcus aureus; settings: C8-LL-I at 25 µg/mL, 5 × 10^5 CFU/mL, incubated overnight at 37 °C
Method: The cells were centrifuged (8000 rpm, 15 min) and resuspended in fresh media to obtain a high-density cell suspension (5 × 10^5 CFU/mL). […] Afterward, the cells were centrifuged (8000 rpm, 15 min) and washed three times with PBS. The bacterial cells were fixed with 2.5% glutaraldehyde buffered at pH 6.5 with 0.1 M sodium cacodylate (Polysciences, Warrington, PA, USA) for 6 h at room temperature, as described earlier [52]. Additional fixation was performed with a 1% osmium tetroxide solution (Polysciences, Warrington, PA, USA) for 2 h at 4 °C. The cells were centrifuged and resuspended in 0.1 M cacodylate buffer, centrifuged again and dehydrated with ethanol. The bacteria were embedded in Epon 812 resin (Sigma-Aldrich, Darmstadt, Germany) at room temperature. A Leica UC7 ultramicrotome (Wetzlar, Germany) was used to obtain ultra-thin sections (55 nm). As contrasting agents, lead citrate and uranyl acetate were used. Cells were visualized using a Tecnai Spirit BioTWIN (EFI, Hillsboro, OR, USA) microscope at 120 kV.

POPG liposomes = assay: CD, α-helix content in POPG liposomes; assay type: physicochemical; settings: 25 °C, peptide 0.15 mg/mL, 1.3 mM POPG; for α-Helix percentage, POPG: from ellipticity at 222 nm
Method: (§1) Large unilamellar vesicles (LUV) were obtained by extrusion of MLV liposomes through polycarbonate membrane filters with a pore diameter of 100 nm (Whatman International Ltd., Kent, UK) using a mini-extruder (Avanti Polar Lipids, Inc., Alabaster, AL, USA).
(§2) CD experiments were carried out at 25 °C using a Jasco J-815 spectropolarimeter in the wavelength range 185–260 nm. The concentration of the lipopeptides was 0.15 mg/mL. The CD spectra were recorded in water, PBS (pH 7.4), 1.3 mM POPC and 1.3 mM POPG. The results are plotted as the mean molar ellipticity per one amino acid residue (MRME, deg cm^2 dmol^−1) as a function of the wavelength (nm). Additionally, we performed a conformational analysis of the selected compounds in the presence of S. aureus cells. […] The mixtures were then incubated for 2 h before recording the CD spectra.
(§3) The percentage of the α-helical structure was calculated based on the mean molar ellipticity at 222 nm using the formula: fH=θ222−3000/−36000−3000·100% where θ222 corresponds to the value of the mean molar ellipticity at a wavelength of 222 nm.

POPG LUVs = assay: Isothermal titration calorimetry, binding to POPG LUVs; settings: ITC, 25 °C, 0.05 or 0.07 mM peptide titrated with 1.3 or 1.8 mM POPG LUVs; one set of sites model (C10-LL-I: two sets of sites, first line)
Method: as §1
The thermodynamic parameters of the interactions of the lipopeptides with POPG and POPC liposomes were determined by isothermal titration calorimetry (ITC). Measurements were performed at 25 °C using an AutoITC microcalorimeter (MicroCal Inc., Northampton, MA, USA) with a 1.4491 mL sample and reference cells. The experiment consisted in the titration of a buffered peptide solution with a concentration of 0.05 and/or 0.07 mM with a buffered solution containing POPG or POPC LUVs with a lipid concentration of 1.3 and 1.8 mM (10.02 µL; 29 injections, 2 µL for the first injection only), as it was described previously. The result of the titration was a thermogram showing a series of peaks corresponding to the titration steps. A titration curve was obtained after integration of the peak areas. The obtained isotherms were fitted to the “one set of sites” or “two sets of sites” models available in the ORIGIN 7.0 (MicroCal Inc., Northampton, MA, USA), which made it possible to determine the enthalpy (ΔH), the binding constant (KITC) and the stoichiometry (N) of the interactions between the lipopeptide and the lipids. The following formula was used to calculate the entropy change (ΔS) and the Gibbs free energy (ΔG): ΔG=−RTln(55.5KITC)=ΔH−TΔS where: factor 55.5 is the molar concentration of water, R is the gas constant (1.986 cal·mol^−1·K^−1), and T is the absolute temperature.

C. glabrata CCM8270 = assay type: cell-based, Candida glabrata; settings: RPMI-1640 with MOPS and 2% glucose, inoculum 5 × 10^3 CFU/mL, 24 h, 35 °C, absorbance 600 nm, triplicate
Method: (§4) The evaluation of the antimicrobial activity of the synthesized lipopeptides was performed against the following reference bacterial and fungal strains: Staphylococcus aureus PCM 1650, Staphylococcus aureus PCM 2054, Staphylococcus epidermidis PCM 521, Staphylococcus epidermidis PCM 2118, Escherichia coli PCM 2057, Candida albicans PCM 2566, Candida glabrata CCM 8270, Candida krusei CCM 8271, Candida parapsilosis CCM 8260.
(§5) For the initial cultivation of the bacteria and fungi, Luria-Bertani broth (LB, Biomaxima, Lublin, Poland) and Sabouraud Dextrose broth (SB, Biomaxima, Lublin, Poland) were used, respectively. Antimicrobial properties of the compounds were analyzed through the determination of MIC (minimal inhibitory concentrations) by my means of the serial micro-dilution technique according to the guidelines of Clinical & Laboratory Standard Institute (CLSI) established for aerobic bacteria and yeasts.
(§6) According to the procedures, Mueller–Hinton broth (MHB) was used as the working medium for the analysis of the bacterial susceptibility, while RPMI-1640 (with L-glutamine, without sodium bicarbonate) growth medium buffered with MOPS (morpholinepropanesulfonic acid) and supplemented with 2% glucose was used for the experiments with the fungi.
(§7) The experiments were carried out for 24 h at 37 and 35 °C for the bacteria and fungi, respectively. Then, the absorbance was measured at 600 nm for each well of the 96-well plate using a microplate reader (Sunrise TM, Tecan Trading AG, Männedorf, Switzerland). Based on the obtained results, the degree of inhibition of the growth of microorganisms (expressed in %) in the presence of the tested compounds range was determined with respect to the control probes. Inoculated wells without peptide were treated as a positive control (100% growth), and the wells containing working medium only were defined as a negative control (0% growth). All measurements were repeated in triplicate.

[1] = Dynamic light scattering of lipopeptide assemblies; assay type: physicochemical; settings: DLS, sonicated 10 min, incubated 1 h, 90° side scatter; for hydrodynamic diameter: 2 mM in PBS pH 7.4, 25 °C
Method: The hydrodynamic diameters of the lipopeptide nanoaggregates were examined by the Litesizer 500 (Anton-Paar GmbH, Graz, Austria) at 25 °C. The measurements were carried out at various lipopeptide concentrations ranging from 0.5 to 2 mM and from 0.25 to 2 mM, in water and PBS, respectively. Two-fold serial dilutions were used to obtain the sequential concentrations. Each sample was sonicated for 10 min followed by incubation for 1 h at 25 °C and transferred to the polystyrene cuvette. The detector was positioned at a side scatter position (90°). The analysis of the obtained results and report generation was performed with KalliopeTM software (Anton-Paar GmbH, Graz, Austria).

C. albicans PCM2566 = assay type: cell-based, Candida albicans; settings: RPMI-1640 with MOPS and 2% glucose, inoculum 5 × 10^3 CFU/mL, 24 h, 35 °C, absorbance 600 nm, triplicate
Method: as §4, §5, §6, §7

C. parapsilosis CCM 8260 = assay type: cell-based, Candida parapsilosis; settings: RPMI-1640 with MOPS and 2% glucose, inoculum 5 × 10^3 CFU/mL, 24 h, 35 °C, absorbance 600 nm, triplicate
Method: as §4, §5, §6, §7

E. coli PCM2057 = assay type: cell-based, Escherichia coli; settings: Mueller–Hinton broth, inoculum 5 × 10^5 CFU/mL, 24 h, 37 °C, absorbance 600 nm, triplicate
Method: as §4, §5, §6, §7

C. krusei CCM8271 = assay type: cell-based, Candida krusei; settings: RPMI-1640 with MOPS and 2% glucose, inoculum 5 × 10^3 CFU/mL, 24 h, 35 °C, absorbance 600 nm, triplicate
Method: as §4, §5, §6, §7

S. epidermidis PCM521 = assay type: cell-based, Staphylococcus epidermidis; settings: Mueller–Hinton broth, inoculum 5 × 10^5 CFU/mL, 24 h, 37 °C, absorbance 600 nm, triplicate
Method: as §4, §5, §6, §7

S. epidermidis PCM2118 = assay type: cell-based, Staphylococcus epidermidis; settings: Mueller–Hinton broth, inoculum 5 × 10^5 CFU/mL, 24 h, 37 °C, absorbance 600 nm, triplicate
Method: as §4, §5, §6, §7

POPC liposomes = assay: CD, α-helix content in POPC liposomes; assay type: physicochemical; settings: 25 °C, peptide 0.15 mg/mL, 1.3 mM POPC; for α-Helix percentage, POPC: from ellipticity at 222 nm
Method: as §1, §2, §3

[2] = test system: human breast cancer cells (MCF-7 line, ATCC); assay: MTT cytotoxicity assay; assay type: cell-based; settings: IC50 against HaCaT divided by IC50 for MCF-7
Method: (§8) The prepared plates were further incubated for 48 h. […] The control cell viability was assumed to be 100%. Three independent experiments were carried out in three repetitions.

[3] = test system: human prostate cancer cells (PC3 line, ATCC); assay: MTT cytotoxicity assay; assay type: cell-based; settings: IC50 against HaCaT divided by IC50 for PC3
Method: as §8

S. aureus PCM2054 = assay type: cell-based, Staphylococcus aureus; settings: Mueller–Hinton broth, inoculum 5 × 10^5 CFU/mL, 24 h, 37 °C, absorbance 600 nm, triplicate
Method: as §4, §5, §6, §7

S. aureus PCM1650 = assay type: cell-based, Staphylococcus aureus; settings: Mueller–Hinton broth, inoculum 5 × 10^5 CFU/mL, 24 h, 37 °C, absorbance 600 nm, triplicate
Method: as §4, §5, §6, §7

fungi Candida spps = assay: MIC, antifungal activity; assay type: cell-based; settings: text summary of Table 1, Candida strains
Method: as §4
For the initial cultivation of the bacteria and fungi, Luria-Bertani broth (LB, Biomaxima, Lublin, Poland) and Sabouraud Dextrose broth (SB, Biomaxima, Lublin, Poland) were used, respectively. Antimicrobial properties of the compounds were analyzed through the determination of MIC (minimal inhibitory concentrations) by my means of the serial micro-dilution technique according to the guidelines of Clinical & Laboratory Standard Institute (CLSI) established for aerobic bacteria and yeasts. […]
The experiments were carried out for 24 h at 37 and 35 °C for the bacteria and fungi, respectively. Then, the absorbance was measured at 600 nm for each well of the 96-well plate using a microplate reader (Sunrise TM, Tecan Trading AG, Männedorf, Switzerland). Based on the obtained results, the degree of inhibition of the growth of microorganisms (expressed in %) in the presence of the tested compounds range was determined with respect to the control probes. […]

[4] = 0.5 mM salt-free aqueous solution, 25 °C

| Structure (SMILES) | α-Helix percentage, POPG (POPG liposomes) | pKITC, POPG (POPG LUVs) | MIC, C. glabrata CCM8270 (C. glabrata CCM8270) | hydrodynamic diameter, peak of highest scattering intensity ([1]; 0.25 mM in PBS pH 7.4, 25 °C) | hydrodynamic diameter, peak of highest scattering intensity [1, 4] | hydrodynamic diameter [1] | MIC, C. albicans PCM2566 (C. albicans PCM2566) | MIC, C. parapsilosis CCM 8260 (C. parapsilosis CCM 8260) | MIC, E. coli PCM2057 (E. coli PCM2057) | MIC, C. krusei CCM8271 (C. krusei CCM8271) | MIC, S. epidermidis PCM521 (S. epidermidis PCM521) | MIC, S. epidermidis PCM2118 (S. epidermidis PCM2118) | θ222/θ208, POPC (POPC liposomes) | α-Helix percentage, POPC (POPC liposomes) | SI MCF-7 [2] | SI PC3 [3] | MIC, S. aureus PCM2054 (S. aureus PCM2054) | other results |
| --- | --- | --- | --- | --- | --- | --- | --- | --- | --- | --- | --- | --- | --- | --- | --- | --- | --- | --- |
| CCCCCCCC(=O)N[C@H](C(=O)N[C@@H](CC(N)=O)C(=O)N[C@@H](Cc1c[nH]c2ccccc12)C(=O)N[C@@H](CCCCN)C(=O)N[C@@H](CCCCN)C(=O)N[C@H](C(=O)N[C@@H](CC(C)C)C(=O)NCC(=O)N[C@@H](CCCCN)C(=O)N[C@H](C(=O)N[C@H](C(=O)N[C@@H](CCCCN)C(=O)N[C@H](C(=O)N[C@@H](C)C(=O)N[C@@H](CCCCN)C(N)=O)C(C)C)[C@@H](C)CC)[C@@H](C)CC)C(C)C)C(C)C [C8-LL-I] (Octanoyl-VNWKKVLGKIIKVAK-NH2) | 27% | 3.98 ± 0.06 | 25 µg/mL (≈ 13.5 µM) | 3360 ± 165 nm | 404 ± 37 nm | 3844 ± 1031 nm | >50 µg/mL | 12.5 µg/mL (≈ 6.76 µM) | 25 µg/mL (≈ 13.5 µM) | 12.5 µg/mL (≈ 6.76 µM) | 6.25 µg/mL (≈ 3.38 µM) | 6.25 µg/mL (≈ 3.38 µM) | 0.85 | 48% | 1.42 | 0.76 | 12.5 µg/mL (≈ 6.76 µM) | effect on S. aureus cells (TEM) (S. aureus cells): induced thinning of the membrane and its disintegration; θ222/θ208, POPG (POPG liposomes): 0.90; MIC, S. aureus PCM1650 (S. aureus PCM1650): 12.5 µg/mL (≈ 6.76 µM) |
| CCCCCCCCCC(=O)N[C@@H](CCCCN)C(=O)N[C@@H](CCCNC(=N)N)C(=O)N[C@@H](Cc1ccccc1)C(=O)N[C@@H](CCCCN)C(=O)N[C@@H](CCCCN)C(=O)N[C@@H](Cc1ccccc1)C(=O)N[C@@H](Cc1ccccc1)C(=O)N[C@@H](CCCCN)C(=O)N[C@@H](CCCCN)C(=O)N[C@@H](CC(C)C)C(=O)N[C@@H](CCCCN)C(N)=O [C10-ATRA-1] (Decanoyl-KRFKKFFKKLK-NH2) | 17% | 7.06 ± 0.61 | >50 µg/mL | 2808 ± 1193 nm | 284 ± 105 nm | 1040 ± 343 nm | 50 µg/mL (≈ 30.3 µM) | 25 µg/mL (≈ 15.1 µM) | 31.25 µg/mL (≈ 18.9 µM) | 12.5 µg/mL (≈ 7.57 µM) | 3.13 µg/mL (≈ 1.9 µM) | 3.13 µg/mL (≈ 1.9 µM) | 0.65 | 14% | 9.47 | 3.92 | 3.9 µg/mL (≈ 2.36 µM) |  |
| CCCCCCCCCCCCCCCC(=O)N[C@@H](CCCCN)C(=O)N[C@@H](CCCNC(=N)N)C(=O)N[C@@H](Cc1ccccc1)C(=O)N[C@@H](CCCCN)C(=O)N[C@@H](CCCCN)C(=O)N[C@@H](Cc1ccccc1)C(=O)N[C@@H](Cc1ccccc1)C(=O)N[C@@H](CCCCN)C(=O)N[C@@H](CCCCN)C(=O)N[C@@H](CC(C)C)C(=O)N[C@@H](CCCCN)C(N)=O [C16-ATRA-1] (Palmitoyl-KRFKKFFKKLK-NH2) |  |  | 3.13 µg/mL (≈ 1.8 µM) |  |  |  | 2.5 µg/mL (≈ 1.44 µM) | 3.13 µg/mL (≈ 1.8 µM) | >50 µg/mL | 2.5 µg/mL (≈ 1.44 µM) | 25 µg/mL (≈ 14.4 µM) | 12.5 µg/mL (≈ 7.2 µM) |  |  |  |  | >50 µg/mL | MIC, antifungal activity (fungi Candida spps): ≤ 3.13 µg/mL |
